{"source": "patent US9062095B2", "about": "“Mutant double cyclized receptor peptides inhibiting β1-adrenoceptor antibodies” (JULIUS-MAXIMILIANS-UNIVERSTITAT-WURZBURG, priority 2007, dated 2015)", "key": {"[1]": {"tested_on": "beta1-receptor antibodies", "assay": "in vivo prevention study: five prophylactic peptide applications, serum antibody-titers by ELISA", "set-up": "species or system rat", "conditions": "1.0 mg/kg body weight i.v., 4-weekly, prevention protocol (FIG. 12)", "protocol": "FIG. 12 is a diagram resuming the in vivo blocking capacity of in total five (prophylatic) applications of various linear and cyclic beta1-ECII-peptides, started 3 months after the first immunization (and two subsequent beta1-ECII/GST-antigen-boosts, corresponding to a prevention protocol). Serum-titers of the beta1-receptor antibodies were determined before and 18-20 h after each peptide injection (abscissa, time in months) and are given in % of the corresponding antibody-titers of immunized untreated rats (y-axis, ordinate). The injected peptides were: 25AA Cys/Cys linear peptide (black squares), […] (white squares), 18AA Cys/Cys cyclopeptide (black diamond), 18AA Cys/Ser cyclopeptide mutant (white diamonds), and the 18AA Cys/Ser linear peptide mutant (vertically hatched diamonds). […] Black circles indicate antibody-titers of untreated regularly (every 4 weeks) immunized animals serving as reference, set at 100%.\nThe in-vivo blocking effects of both 25AA and 18AA Cys/Ser mutant cyclopeptides (with a Gln closure site), the 18AA Ser/Cys mutant cyclopeptide, and a mutated linear 18AA Cys/Ser peptide were analyzed after intravenous (i.v.) injection of 1.0 mg/kg body weight (Bw) of each construct into freshly immunized antibody-positive rats (i.e., use of cyclo-peptides in a kind of “prevention” study), with a first cyclopeptide-application 3 months after the initial immunization (and two subsequent boost at months 2 and 3). In total, five prophylactic applications of the various constructs were given at 4-weekly intervals, always two weeks after the monthly continued antigen boost. Sera were drawn 18-20 hours after i.v. injection and assayed for reactivity by ELISA using the 3 Cys-containing linear 25AA Cys/Cys-peptide as an antigen (FIG. 12)."}, "[2]": {"tested_on": "anti-beta1-ECII antibody-secreting cells (ASC)", "assay": "ELISPOT-assay with B-cells from bone marrow or spleen of prophylactically treated rats", "assay_type": "in vivo, rat", "conditions": "prophylactically treated versus untreated immunized rats, n=3-4 (FIG. 13)", "protocol": "Cys/Ser, horizontally hatched columns). For the assays, ELIspot plates were coated overnight with the specific antigen (GST/beta1-ECII-FP) in 0.05 mol/1 Tris buffer, pH 9.4.; then the plates were washed 3 times and blocked with BSA for 3 hours at 37° C. Subsequently, the plates were incubated overnight at 37° C. with B-cells from either spleen or bone marrow (cultured in RPMI 1640/X-VIVO-15 medium supplemented with 10% fetal calf serum (FCS)) with 1×10^6 to 1×10^3 cells per well. After 12 hours the B-cells were discarded and the plates with the B-cell secreted IgG bound were washed several times (PBS/0.5° A) Tween) before the addition of alkaline phos-phatase conjugated secondary anti-rat IgG (0.3 μg/ml) to detect bound rat IgG. Then the plates were incubated for another 3 hours at 37° C., washed several times with PBS/0.5% Tween, and developed using LMP/BICP 5:1 (1 ml per well; “LMP” means low melting agarose, and “BICP” means 5-bromo-4-chloro-3-indolyl phosphate p-toluidine salt, a blue-colored dye) allowing for a quantification of the blue spots obtained, with each spot representing an antigen-specific IgG secreting spleen or bone-marrow cell.\nThis finding was confirmed by ELIspot analysis of bone marrow and spleen cell preparations of selected cyclopeptide-treated versus untreated immunized rats (n=3)."}, "[3]": {"tested_on": "rats with antibody-induced immune-cardiomyopathy", "assay": "in vivo therapy study: cardioprotective effect (echocardiography, hemodynamics, organ weights)", "set-up": "species or system rat", "excerpt": "FIG. 17.A is a diagram showing the time course (month 0 to 20) of the internal end-systolic and end-diastolic left ventricular diameters (LVES, LVED) of GST/β1-ECII-immunized un-treated (black circles) versus GST/β1-ECII-immunized animals treated with the indicated various cyclopeptides (see legend) as determined by echocardiography (echocardiographic system: Visual Sonics, Vevo 770 (version V2.2.3), equipped with a 15-17.5 MHz transducer), whereby LVES/LVED is left ventricular end-systolic diameter/left ventricular end-diastolic diameter.\nFIG. 17.B is a similar diagram showing the time course (month 0 to 20) of the internal end-systolic and end-diastolic left ventricular diameters (LVES, LVED) of GST/β1-ECII-immunized untreated (black circles) versus GST/β1-ECII-immunized animals, treated with different concentrations of the 18AA Cys/Ser cyclopeptide mutant (see legend).\nFIG. 19A is a diagram depicting the time course (month 0 to 20) of the “Cardiac index” (CI) in ml/min/g (body weight) as determined by echocardiography (echocardiographic system see legend to FIG. 17a.).\nThe latter doses were almost equally efficient in terms of both, neutralization of circulating receptor antibodies (FIGS. 16b and c), and reversal of antibody-induced cardiomyopathic features (FIGS. 17b, 19b, 20, and 21b)."}, "[4]": {"tested_on": "beta1-ECII receptor antibody-titers", "assay": "in vivo therapy study cyc22AA versus cyc18AA Cys/Ser in rats immunized over 8 months: antibody-titers", "set-up": "species or system rat", "conditions": "injections every 4 weeks, start at month 8; mean ±SEM (FIG. 28A)", "excerpt": "FIGS. 28A and B depict the in vivo blocking (=neutralization) capacity of two cysteine-containing 18AA or 22AA cyclopeptide-mutants of the second extracellular loop (ECII) of the human beta1-adrenergic receptor upon therapeutic injection of the different constructs into rats regularly immunized since 8 months (first=basic immunization followed by 7 antigen-boosts every 4 weeks). The effects of four to five subsequent cyclopeptide-injections every 4 weeks are shown. FIG. 28A depicts the mean values±SEM of each of the treated groups of immunized beta1-ECII-antibody positive cardiomyopathic rats (animal number per group is given in the legend). […] The remaining receptor antibody-titers after each injection in % of the antibody-titers at start therapy (month 8) are depicted (columns). Error bars indicate ±SEM. Numbers in columns indicate the number of (subsequent) monthly injection.\nFIG. 28B depicts the time course of antibody-titers after 4 subsequent cyclopeptide-injections, determined before and 20-22 hours after application of the indicated constructs. Values are given in percent of increase or decrease in the respective antibody-titers after each cyclopeptide-injection compared with the antibody-titer determined at start of therapy (month 8). […]"}}, "note": "Positions of bridges follow the written chain, without caps; N, C: chain ends."}
{"substance": "Cyclo-Ala-Asp-Glu-Ala-Arg-Arg-Cys-Tyr-Asn-Asp-Pro-Lys-Cys-Ser-Asp-Phe-Val-Gln (cyclo(ADEARRCYNDPKCSDFVQ); disulfide 7-13; SMILES CC(C)[C@@H]1NC(=O)[C@H](Cc2ccccc2)NC(=O)[C@H](CC(=O)O)NC(=O)[C@H](CO)NC(=O)[C@@H]2CSSC[C@H](NC(=O)[C@H](CCCNC(=N)N)NC(=O)[C@H](CCCNC(=N)N)NC(=O)[C@H](C)NC(=O)[C@H](CCC(=O)O)NC(=O)[C@H](CC(=O)O)NC(=O)[C@H](C)NC(=O)[C@H](CCC(N)=O)NC1=O)C(=O)N[C@@H](Cc1ccc(O)cc1)C(=O)N[C@@H](CC(N)=O)C(=O)N[C@@H](CC(=O)O)C(=O)N1CCC[C@H]1C(=O)N[C@@H](CCCCN)C(=O)N2) [18AA Cys/Ser mutant (Gln-)cyclopeptide, disulphide bond Cys7-Cys13, ring closure Ala1-Gln18]", "values": [{"measurement": "antibody-titer decrease after 5 injections, compared with untreated immunized animals", "setting": "[1]", "value": "54.5±2", "unit": "%"}, {"measurement": "number of specific anti-beta1-ECII antibody-secreting cells (ASC) in spleen and bone marrow", "setting": "[2]", "value": "significant decrease"}, {"measurement": "achieved cardioprotective effect compared with 1.0 or 2.0 mg/kg", "setting": "[3]; 0.25 mg/kg Bw, repeated injections every 4 weeks", "value": "clearly less efficient"}, {"measurement": "cardioprotective effects compared with 1.0 or 2.0 mg/kg", "setting": "[3]; 4.0 mg/kg body weight, repeated injections every 4 weeks", "value": "did not result in higher efficiency"}, {"measurement": "reversal of antibody-induced cardiomyopathic features", "setting": "[3]; 1.0 or 2.0 mg/kg Bw (FIGS. 17B, 19B, 20, 21B)", "value": "best cardioprotection"}, {"measurement": "antibody-titer remaining after 4 injections in percent of the titer at start of therapy", "setting": "[4]", "value": "76.0±23.0", "unit": "%"}]}
